Columns and labels:
[1] = system: AD38 cells; test: Viability of AD38 cells (Promega CellTiter-Glo) at the end of compound treatment; type: cell-based; conditions: 10 μM compound, 6 days, luminescence normalized against DMSO control wells (controls being 100%)
Procedure: (§1) Example 56: Assay Measuring Activity of Compounds on Viral Production in and on Viability of AD38 Cells
(§2) AD38 cells were then re-suspended with 10 mL of Treatment Medium and counted. Wells of a collagen coated 96-well NUNC microtiter plate were seeded at 50,000/well in 180 μL of Treatment Medium, and 20 μL of in treatment media with either 10% DMSO (Control) or a 10× solution of compound in 10% DMSO was added. Plates were incubated for 6 days at 37° C.
At the end of compound treatment period cell viability was assessed using a Promega CellTiter-Glo protocol. All supernatant was removed the previously treated 96-well microtiter plate, and 50 μL Tetracycline-free treatment medium (DMEM/F12 (1:1), lx Pen/step (cat#: 30-002-CL, Mediatech, Inc), with 2% FBS, Tet-system approved (cat#: 631106, Clontech), and 1% DMSO was added back to each well. Another 50 μL of CellTiter-Glo reagent solution (Promega, G7573) was then added at room temperature and the contents mixed for 2 minutes on an orbital shaker to induce cell lysis. This was followed by incubation at room temperature for 10 minutes to stabilize the luminescent signal. The luminescence was recorded for 0.2 seconds per well on a Tecan multimode platereader (Infinite M1000 pro). The luminescent signal from each well was normalized against that of untreated (DMSO) control wells. All results were reported percent viability (with controls being 100%).

[2] = system: HBV viral production in AD38 cells; test: Viral load production in AD38 cells by quantitative PCR of the HBV core sequence in supernatant; type: cell-based; conditions: Hepatitis B virus, 144 h; 10 μM compound, 6 days at 37° C., viral load in supernatant compared against DMSO control wells; read-out: AD38 Viral Load (CpAM/DMSO %) at 10 μM
Procedure: as §1, §2
Viral load production was assayed by quantitative PCR of the core sequence. Briefly, 5 μL of clarified supematant was added to a PCR reaction mixture that contained forward primers HBV-f 5′-CTGTGCCTTGGGTGGCTTT-3′, Reverse primers HBV-r 5′-[…]-3′ and Fluorescent TaqMan™ Probes HBV-probe 5′-FAM/AGCTCCAAA/ZEN/[…]/3IABkFQ-3′ in Quanta Biosciences PerfeCTa® qPCR Toughmix®, and was subsequently on an Applied Biosystems VIIA7 in a final volume of 20 μL. The PCR mixture was incubated at 45° C. for 5 minutes, then 95° C. for 10 min, followed by 40 cycles of 10 seconds at 95° C. and 20 seconds at 60° C. Viral load was quantitated against known standards by using ViiA™ 7 Software. Viral load in the supematant from wells with treated cells were compared against viral load in supernatant from DMSO control wells (≥3 per plate).

SMILES | AD38 Viability Normalized Result (CPAM/DMSO %) at 10 μM [1] | activity at 10 µM [2]
O=C(NCC1CC1)c1ccc2c(c1)NC(=O)c1ccccc1S2 [Compound 1173] | 105% | 39%
O=C(NCC1CCC1)c1ccc2c(c1)NC(=O)c1ccccc1S2 [Compound 1174] | 109% | 35%
O=C(NCCN1CCOCC1)c1ccc2c(c1)NC(=O)c1ccccc1S2 [Compound 1175] | 123% | 30%
CCC(CNC(=O)c1ccc2c(c1)NC(=O)c1ccccc1S2)c1ccccc1 (stereo not shown) [Compound 1176] | 104% | 2%
CC(Cc1cccc(O)c1)NC(=O)c1ccc2c(c1)NC(=O)c1ccccc1S2 (stereo not shown) [Compound 1177] | 118% | 47%
O=C(NCCc1ccc(OC(F)(F)F)cc1)c1ccc2c(c1)NC(=O)c1ccccc1S2 [Compound 1182] | 55% | 13%
Cc1cccc(CCNC(=O)c2ccc3c(c2)NC(=O)c2ccccc2S3)c1 [Compound 1183] | 36% | 2%
Cc1ccc(CCNC(=O)c2ccc3c(c2)NC(=O)c2ccccc2S3)cc1 [Compound 1184] | 0% | 1%
CCc1ccc(CCNC(=O)c2ccc3c(c2)NC(=O)c2ccccc2S3)cc1 [Compound 1185] | 0% | 1%
O=C(NCCc1ccc(C(F)(F)F)cc1)c1ccc2c(c1)NC(=O)c1ccccc1S2 [Compound 1186] | 39% | 1%
Cc1ccccc1CNC(=O)c1ccc2c(c1)NC(=O)c1ccccc1S2 [Compound 1187] | 73% | 1%
CCc1ccc(CNC(=O)c2ccc3c(c2)NC(=O)c2ccccc2S3)cc1 [Compound 1188] | 83% | 4%
O=C(NCC12CC3CC(CC(C3)C1)C2)c1ccc2c(c1)NC(=O)c1ccccc1S2 [Compound 1189] | 85% | 1%
O=C(NCCc1cccs1)c1ccc2c(c1)NC(=O)c1ccccc1S2 [Compound 1190] | 70% | 1%
O=C(NCCC1CCOCC1)c1ccc2c(c1)NC(=O)c1ccccc1S2 [Compound 1191] | 121% | 14%
O=C(NCCOc1ccccc1)c1ccc2c(c1)NC(=O)c1ccccc1S2 [Compound 1192] | 81% | 3%
O=C(NCC1CCCC1)c1ccc2c(c1)NC(=O)c1ccccc1S2 [Compound 1193] | 90% | 4%
CC(C)(C)c1ccc(CCNC(=O)c2ccc3c(c2)NC(=O)c2ccccc2S3)cc1 [Compound 1194] | 45% | 1%
O=C(NCCc1cccc(C(F)(F)F)c1)c1ccc2c(c1)NC(=O)c1ccccc1S2 [Compound 1195] | 48% | 0%
O=C(NCc1ccc(O)cc1)c1ccc2c(c1)NC(=O)c1ccccc1S2 [Compound 1196] | 95% | 2%
O=C(NCc1ccc(F)cc1)c1ccc2c(c1)NC(=O)c1ccccc1S2 [Compound 1197] | 88% | 1%
O=C(NCCC1CCCCC1)c1ccc2c(c1)NC(=O)c1ccccc1C2 [Compound 1198] | 60% | 3%
O=C(NCCC1CCCCC1)c1ccc2c(c1)Sc1ccccc1C(=O)N2 [Compound 1199] | 109% | 19%
O=C(NCCc1ccccc1)c1ccc2c(c1)Sc1ccccc1C(=O)N2 [Compound 1200] | 125% | 18%

SMILES | AD38 Viability Normalized Result (CPAM/DMSO %) at 10 μM [1] | activity at 10 µM [2]
O=C(NCCc1cccc(OC(F)(F)F)c1)c1ccc2c(c1)NC(=O)c1ccccc1S2 [Compound 1201] | 50% | 1%
O=C(NCc1cccc(O)c1)c1ccc2c(c1)NC(=O)c1ccccc1S2 [Compound 1202] | 107% | 7%
O=C(NCc1cccc(OC(F)(F)F)c1)c1ccc2c(c1)NC(=O)c1ccccc1S2 [Compound 1203] | 89% | 3%
O=C(NCCC1CCC(O)CC1)c1ccc2c(c1)NC(=O)c1ccccc1S2 (stereo not shown) [Compound 1204] | 97% | 2%
O=C(NCCC1CCCCC1)c1ccc2c(c1)NC(=O)c1ccccc1S2(=O)=O [Compound 1206, N-(2-cyclohexylethyl)-11-oxo-10, 11-dihydrodibenzo [b,f] [1,4] thiazepine-8-carboxamide 5,5-dioxide] | 106% | 10%
O=C(CCC1CCCCC1)Nc1ccc2c(c1)NC(=O)c1ccccc1S2 [Compound 1207] | 99% | 24%
O=C(NCCOc1ccc(F)cc1)c1ccc2c(c1)NC(=O)c1ccccc1S2 [Compound 1208] | 103% | 11%
O=C(NCCC1CCCO1)c1ccc2c(c1)NC(=O)c1ccccc1S2 (stereo not shown) [Compound 1209] | 102% | 1%
O=C(NCc1ccccn1)c1ccc2c(c1)NC(=O)c1ccccc1S2 [Compound 1210] | 116% | 25%
O=C(NCc1cccnc1)c1ccc2c(c1)NC(=O)c1ccccc1S2 [Compound 1211] | 106% | 1%
CC(CNC(=O)c1ccc2c(c1)NC(=O)c1ccccc1S2)c1ccccc1 (stereo not shown) [Compound 1212] | 72% | 1%
CC(C)(CNC(=O)c1ccc2c(c1)NC(=O)c1ccccc1S2)c1ccccc1 [Compound 1213] | 55% | 2%
CCOc1ccc(CCNC(=O)c2ccc3c(c2)NC(=O)c2ccccc2S3)cc1 [Compound 1214] | 94% | 2%
O=C(NCCC1CCC(F)(F)CC1)c1ccc2c(c1)NC(=O)c1ccccc1S2 [Compound 1216] | 125% | 1%
O=C(NCCC1CCC(F)CC1)c1ccc2c(c1)NC(=O)c1ccccc1S2 (stereo not shown) [Compound 1217] | 37% | 1%
O=C(NCc1ccccc1O)c1ccc2c(c1)NC(=O)c1ccccc1S2 [Compound 1219] | 100% | 5%
O=C(NC[C@H](O)c1ccccc1)c1ccc2c(c1)NC(=O)c1ccccc1S2 [Compound 1220] | 94% | 2%
C[C@@H](O)CNC(=O)c1ccc2c(c1)NC(=O)c1ccccc1S2 [Compound 1221] | 106% | 19%
C[C@H](O)CNC(=O)c1ccc2c(c1)NC(=O)c1ccccc1S2 [Compound 1222] | 100% | 32%
O=C(Nc1ccccc1)c1ccc2c(c1)NC(=O)c1ccccc1S2 [Compound 1223] | 28% | 2%
O=C(NCCc1ccccc1)Nc1ccc2c(c1)NC(=O)c1ccccc1S2 [Compound 1224, 1-(11-oxo-10, 11-dihydrodibenzo [b,f] [1,4]thiazepin-8-yl)-3-phenethylurea] | 65% | 3%
O=C(NCCC1CCCCC1)Nc1ccc2c(c1)NC(=O)c1ccccc1S2 [Compound 1225, 1-(2-cyclohexylethyl)-3-(11-oxo-10, 11-dihydrodibenzo [b,f] [1,4]thiazepin-8-yl) urea] | 87% | 10%
O=C(NC[C@@H](O)c1ccccc1)c1ccc2c(c1)NC(=O)c1ccccc1S2 [Compound 1226] | 80% | 1%

— patent US10183936B2, “Hepatitis B core protein allosteric modulators” (priority 2014, dated 2019)
